Here are results for four molecules from US20150293109A1, “Fluorescent Chemical Dye for Visualization of Neural Stem Cell Symmetric and Asymmetric Division” (NATIONAL UNIVERSITY OF SINGAPORE, priority 2012, published 2015).

Where two headings read alike, the source gives them in different places.

What all share (format): cell-based, mouse
Series [1] concerns dissociated neurosphere cells. The experiment in a line: Neurosphere formation in the presence of AC inhibitors. The settings on record: 1,000 cells per well, 0.01 to 10 μM AC inhibitor, neurospheres counted, read-out: IC50 of inhibition of neurosphere formation. As to the method:
Mouse brains harvested from E14.5 fetuses were digested with 0.25% trypsin/1mM EDTA solution for 30 minutes at 37° C. The tissues were triturated sequentially with a 10-mL pipette, a 1-mL pipette and a 0.2-mL pipette in medium containing 10% fetal bovine serum (FBS). The dissociated cells were washed 3 times with PBS by repeated resuspension and centrifugation, and filtered through a 40-μm strainer. The obtained single cells were plated in DMEM/F12 medium containing 10 ng/mL bFGF, 20 ng/mL EGF and B27 without vitamin A, and cultured for 7-10 days without changing the medium.
(§1) To assess the effects of CDy5 and AC inhibitors on neurosphere formation, dissociated neurosphere cells were plated in 12-well culture plates at a density of 1,000 cells per well and cultures in the presence of 2 μM or 4 μM CDy5 or 0.01 to 10 μM AC inhibitor. For vehicle control, DMSO was added to a volume of 0.1%. The IC50 values were calculated using GraphPad Prism software.
Ceranib-2 was developed as a ceramidase inhibitor by screening ˜50,000 small molecules and chemical optimization of a lead compound. It inhibits cancer cell growth in vivo as well as in vitro (21).

Series [2] has as its system neurospheres. The series can be described thus: Dye retention in stained neurospheres after paraformaldehyde fixation and methanol extraction. The settings on record: 4% paraformaldehyde fixation followed by absolute methanol. An excerpt: To determine if CDy5 forms a covalent bond with a protein, neurospheres stained with CDy5 and Hoechst 33342 were fixed using 4% paraformaldehyde followed by absolute methanol, which extracts organic dyes bound to their targets by noncovalent bonding. Both CDy5 and Hoechst signals were detected when observed after fixation with paraformaldehyde.

For another series, the system named is neurosphere cells. The series can be described thus: Neurosphere assay of FACS-sorted CDy5bright and CDy5dim cells. The settings on record: FACS-sorted cells, 3,000 cells per well, six days of culture. The method, then: The method of detecting a stem cell in a sample can further comprise distinguishing between a neural stem cell and a differentiated neural cell in the sample. For example, when a mouse neurosphere was treated with CDy5, cytoplasmic staining of a distinct cell population within the neurosphere was observed (FIG. 1). The so-called CDy5^bright cells, those visible in the right panel of FIG. 1, emitted a signal that was substantially greater than the signal emitted by the so-called CDy5^dim cells. […] In the experiment described above, a cell was considered to be a CDy5^dim cell if no signal could be detected by fluorescence microscopy, or the signal detected was not substantially greater than background signal.
Dissociated neurosphere cells were cultured in a complete neurosphere culture medium containing 2 μM CDy5 for six days. They were dissociated for single cell imaging, live cell time-lapse imaging and clonal neurosphere imaging. […]
To examine the relationship between stemness and CDy5 staining, CDy5^bright and CDy5^dim neurosphere cells were sorted and collected by FACS and separately resuspended in neurosphere culture medium and plated in triplicate in […] culture plates at a density of 3,000 cells per well. […] After six days of culture, the number of neurospheres was counted manually under a microscope.

In series [3] the test system is neurospheres. The series can be described thus: Multipotency test of neurospheres generated in the presence of CDy5. The following applies: neurospheres generated in the presence of CDy5, differentiated in 5% FBS. The method, then:
(§2) Whether CDy5 exerts adverse effects on proliferation and differentiation of neural stem cells was also assessed using a neurosphere assay and multipotency test. For cytotoxicity assay, dissociated neurosphere cells were plated in triplicate in 6-well culture plates at a density of 1,000 cells per well and cultured in the presence of 2 μM or 4 μM CDy5. For vehicle control, 0.1% DMSO was added. After six days, the number of neurospheres was determined.
The single neurospheres generated in the presence of CDy5 and normal medium were then plated onto glass coverslips coated with laminin and poly-L-lysine, cultured in medium containing 5% fetal bovine serum and allowed to undergo differentiation. The differentiated cells were immunostained using antibodies raised against markers of astrocyte, neuron and oligodendrocyte to classify the neurospheres into uni-, bi- and tri-potent depending on the number of positively stained cell types. The control group contained 55±6% unipotent neurospheres, 29±3% bipotent neurospheres and 16±3% tripotent neurospheres. The CDy5 group contained 49±1% unipotent neurospheres, 31±4% bipotent neurospheres and 20±3% tripotent neurospheres. These are very similar ratios of differentiation potential of neurospheres between control and CDy5 groups.

Series [4] has as its system neurospheres. The series can be described thus: Differentiation potential of neurospheres generated from CDy5bright and CDy5dim cells. The following applies: mean±SD of duplicates. As to the method: Single neurospheres were plated onto glass coverslips coated with laminin and poly-L-lysine and cultured in bFGF/EGF-depleted neurosphere culture medium containing 5% fetal bovine serum. The differentiated cells were fixed with 4% paraformaldehyde and stained using primary antibodies: Tuj1 (Covance), glial fibrillary acidic protein (GFAP) (Dako), and O4 (Millipore), and appropriate secondary antibodies: Alexa Fluor 488 goat anti-mouse, Alexa Fluor 594 goat anti-mouse and Alexa Fluor 647 donkey anti-rabbit (Life Technologies), respectively. Tuj1 was used as a marker for neurons, GFAP was used as a marker for astrocytes and 04 was used as a marker for oligodendrocytes.
When the neurospheres were randomly differentiated in a medium containing only FBS, and immunostained against astrocyte, neuron and oligodendrocyte markers as described above, more numbers of neurospheres generated from CDy5^bright cells differentiated into all three types of cells than those from CDy5^dim cells. The CDy5^bright cells differentiated into 30±4% uni-potent cells, 26±1 bi-potent cells and 44±3 tri-potent cells. The CDy5^dim cells differentiated into 47±6 uni-potent cells, 22±1 bi-potent cells and 31±7 tri-potent cells. Data represent mean±standard deviation (SD) of duplicates.

For series [5], the system named is dissociated neurosphere cells. The series can be described thus: Cytotoxicity assay: number of neurospheres grown in the presence of CDy5. The settings on record: for number of neurospheres: vehicle control 189±40. As to the method:
as §1, §2

Setting [6] is: neurospheres from CDy5bright cells.
Where [7] appears, read: neurospheres from CDy5dim cells.

For the molecule `CCCCCCNC(=O)n1cc(F)c(=O)[nH]c1=O` [Carmofur], in series [1] (Mus musculus), the IC50 came out at 920 nM.

Consider `CCOc1ccc(-c2nc3ccc(-c4nc5ccc(N6CCN(C)CC6)cc5[nH]4)cc3[nH]2)cc1` [Hoechst 33342], for which the “dye signal following methanol treatment” value in the series with neurospheres [2] is “almost completely washed out”.

For the molecule `COc1ccc(/C=C/C(=O)c2c(-c3ccccc3)c3ccccc3[nH]c2=O)cc1` [Ceranib-2], in series [1], the IC50 came out at 780 nM.

In the case of `CN(CCNC(=O)CCl)c1ccc2c(-c3cccc(CN4CCOCC4)c3)c3ccc(=N)cc-3oc2c1` [CDy5], the “times more neurospheres from CDy5bright cells than from CDy5dim cells” value with neurosphere cells was “more than 10 times”. Further, the tripotent neurospheres in the series with neurospheres [3] (control 16±3%) came to 20±3%. For the same molecule, in the series with neurospheres [3] (control 29±3%), the bipotent neurospheres stood at 31±4%. In addition, the unipotent neurospheres in the series on neurospheres [3] (control 55±6%) is reported as 49±1%. In the series with neurospheres [4] (setting [6]), this molecule yielded a bi-potent of 26±1%, a tri-potent of 44±3% and a uni-potent of 30±4%. In the series on neurospheres [4] (setting [7]), this molecule gave a bi-potent of 22±1%, a tri-potent of 31±7% and a uni-potent of 47±6%. Besides, the “number of neurospheres compared to vehicle-added control group” value in series [5] (2 μM and 4 μM CDy5, six days of culture) is “not significantly different”. The number of neurospheres in series [5] (medium containing 2 μM CDy5) was 229±72. Further, the number of neurospheres in series [5] (medium containing 4 μM CDy5) came to 228±83.

What is called IC50 is the concentration at which inhibition is half-maximal.
